Measurements published in patent US9181309B1, “Peptide regulation of maize defense responses” (The United States of America, as represented by the …, priority 2011, dated 2015).

What was measured:
[1] = system: Aspergillus niger, Trichoderma viride, Rhizopus sp., Penicillium sp., Aspergillus flavus and Fusarium graminearum; format: cell-based, fungi isolated from germinating maize kernels; details: for effect on fungal growth: 1 mM in PDA; for growth of fungal pathogens: 10 and 3.3 mM in PDA
[2] = system: Pseudomonas syringae pv. tomato DC3000 and Xanthomonas campestris pv. vesicatoria; format: cell-based
Cotesia marginiventris = experiment: Olfactometer assay of parasitoid wasp attraction to pretreated leaves; format: in vivo; details: naive C. marginiventris
Source text: The generalist parasitoid Cotesia marginiventris attacks many Lepidopteran species including S. exigua and is attracted to herbivory-induced maize volatiles (Turlings et al., Science 250:1251, 1990). Precisely which components are attractive has been difficult to determine, and the wasps respond strongly to unidentified minor components when subjected to gas chromatograph-coupled electroantennography (Gouinguene et al., J Chem Ecol. 31:1023, 2005). To determine whether the ZmPep3-induced blend was attractive to naïve C. marginiventris, olfactometer assays were conducted with leaves pretreated with ZmPep3, Gln-18:3 or water for 16 h. To ensure that any preference was due to elicited plant responses and not to an inherent attraction or repellence to any treatment substance, leaves treated at time of assay were used as controls. […] Thus, ZmPep3-regulated responses are sufficient to generate effective indirect defenses against Lepidopteran herbivores.

[3] = system: jasmonic acid and ethylene production in maize leaves; experiment: Phytohormone (JA, ET) production in treated leaves; format: in vivo, Zea mays; details: low equivalent quantities of either elicitor
Source text: A further embodiment is ZmPEP3 regulated production of defense-related metabolites. The elicitor-induced phytohormones JA and ethylene (ET) function as signals integral to initiation of protective responses against pathogens and herbivores (Howe and Jander, Annu Rev Plant Biol. 59:41, 2008).

[4] = system: herbivore defense genes in maize leaves; experiment: Real time qPCR / qRT-PCR of defense and phytohormone biosynthesis genes in treated leaves
[5] = system: defense metabolites in maize leaves; experiment: Accumulation of defense metabolites within treated leaves (internal pools); format: in vivo, Zea mays; details: following treatment
Source text: Induced terpene production is vital to anti-herbivore defenses in many plant species (Unsicker et al., Curr Opin Plant Biol. 12:479, 2009; Tholl, Curr Opin Plant Biol. 9:297, 2006; Keeling and Bohlmann, New Phytol 170:657, 2006). […] Expression of genes encoding the relevant biosynthetic enzymes, Anthranilic Acid Methyl Transferase 1 (AAMT1) and Indole-Glycerol Phosphate Lyase (IGL) were induced by both peptide and the insect elicitor ([…]., Plant Physiol 153:1795, 2010; Frey et al., Proc Natl Acad Sci USA. 97:14801, 2000). In addition to proteinaceous defenses, maize benzoxazinoids contribute to direct defenses against both herbivores and pathogens ([…] Agric Food Chem 57:1677, 2009). […] Oikawa et al., Phytochemistry. 56:669, 2001; Huffaker et al., Plant Physiol. 155:1325, 2011). […] It is hypothesized that simultaneous activation of both IGL and BX1 by ZmPep3 results in increased flux through the benzoxazinoid pathway to produce HDMBOA-Glc.

[6] = system: defense metabolites in maize leaves; details: in vivo; cited from earlier work

## c1ccc2[nH]ccc2c1 [indole]
[1]
  effect on fungal growth: moderate limiting effect
  growth of fungal pathogens: prevented growth
[2]
  bacterial growth at the lowest concentration tested: particularly effective at limiting bacterial growth
  growth of bacterial pathogens: prevented growth

## CC/C=C\C/C=C\C/C=C\CCCCCCCC(=O)N[C@@H](CCC(N)=O)C(=O)O [Gln-18:3, N-Linolenoyl-L-glutamine, reference compound]
Cotesia marginiventris
  wasp preference for leaves pretreated 16 h vs leaves treated at time of assay: did not display a statistically significant preference
[3]
  JA and ET synthesis: elicitation of JA and ET synthesis
[4]; 12 h post-treatment
  BX1 and BX2 expression by qRT-PCR: expressed
[4]; equivalent molar concentrations
  expression of genes encoding Terpene Synthases (TPS) 10 and 23: strongly activate expression
[4]; in vivo
  expression of AAMT1 and IGL genes: induced
[4]; low equivalent quantities of elicitor
  accumulation of transcripts for ACC Oxidase, Allene Oxide Synthase and Allene Oxide Cyclase: significantly increased accumulation of transcripts
[5]
  anthranilate and indole in leaves: increased

## ZmPEP1: previously identified maize plant elicitor peptide VRRRPTTPGRPREGSGGNGGNHH (SEQ ID NO: 1) (Zea mays)
[6]
  HDMBOA-Glc induction (literature): induced

## CC/C=C\C[C@H]1C(=O)CC[C@@H]1CC(=O)O [JA, jasmonic acid]
[6]
  HDMBOA-Glc induction (literature): induced

## C[C@@H]1[C@H](O)[C@@H](C)/C=C/C=C/C=C/C=C/C=C/C=C/C=C/[C@H](O[C@@H]2O[C@H](C)[C@@H](O)[C@H](N)[C@@H]2O)C[C@@H]2O[C@](O)(C[C@@H](O)C[C@@H](O)[C@H](O)CC[C@@H](O)C[C@@H](O)CC(=O)O[C@H]1C)C[C@H](O)[C@H]2C(=O)O [amphotericin B, reference compound]
[1]; three days after inoculation
  fungal growth on antimycotic-supplemented medium: have not spread from the center well
[2]
  bacterial growth on antimycotic-supplemented medium: proliferated unaffected

## hexenal
[1]
  effect on fungal growth: reduced
  growth of fungal pathogens: prevented growth
[2]
  effect on bacterial (microbial) growth: reduced
  growth of bacterial pathogens: prevented growth

## C=CC(C)(O)CCC=C(C)CCC=C(C)C (centres unmarked) [Nerolidol, nerolidol]
[1]; 10 mM to 0.3 mM
  fungal (microbial) growth at any concentration: did not limit microbial growth
[1]; all concentrations tested
  sporulation of all fungi: strong inhibitor of sporulation
[2]
  bacterial (microbial) growth at any concentration: did not limit microbial growth

## C=CC(C)(O)CCC=C(C)C (centres unmarked) [linalool]
[1]
  effect on fungal growth: reduced
  growth of fungal pathogens: prevented growth
[2]
  effect on bacterial (microbial) growth: reduced
  growth of bacterial pathogens: prevented growth
